The source of these data is PubChem BioAssay AID720616 (Broad Institute, 2013).

As a reminder, the AC50 is the concentration giving half of the maximal activity seen. A low value points to activity at low concentration.

The subject of the experiment is U-251 glioblastoma viability, CellTiter-Glo ATP luminescence. In words: cytotoxicity in U-251 glioma cells – cell-based, CellTiter-Glo ATP luminescence, several timepoints, dry powder, mechanism study for HRAS target identification, late-stage follow-up (AID 720616).

A value given as a limit tells only on which side of the number the result lay.

As to `CC(C)(C)OC(=O)NCCOCCOCCOc1ccc(N(C(=O)CCl)C(C(=O)NCCc2ccccc2)c2cccs2)cc1Cl` (centres undefined), the AC50 (measured here: 8 h treatment) was 912 nM, the AC50 (measured here: 24 h treatment) was determined as 1220 nM and the AC50 (measured here: 48 h treatment) was 2210 nM.

Regarding `C#CCCCC(=O)NCCOCCOCCOc1ccc(N(C(=O)CCl)C(C(=O)NCCc2ccccc2)c2cccs2)cc1Cl` (centres undefined), the AC50 reads like this: (measured here: 8 h treatment) 7550 nM; (measured here: 24 h treatment) 4090 nM; (measured here: 48 h treatment) 10200 nM.

Turning to `Cc1onc(C(=O)N2CCN(C(c3ccc(Cl)cc3)c3ccc(Cl)cc3)CC2)c1[N+](=O)[O-]`, the AC50 is over 70000 nM (measured here: 24 h treatment) and over 70000 nM (measured here: 48 h treatment).

Consider `COc1ccc(N(C(=O)CCl)C(C(=O)NCCc2ccccc2)c2cccs2)cc1Cl` (centres undefined), for which the AC50 by setting is: (measured here: 8 h treatment) 734 nM; (measured here: 24 h treatment) 709 nM; (measured here: 48 h treatment) 1380 nM.

Turning to `COC(=O)c1ccc([C@@H]2c3[nH]c4ccccc4c3C[C@@H](C(=O)OC)N2C(=O)CCl)cc1`, the AC50 runs as follows: (measured here: 8 h treatment) 1100 nM; (measured here: 24 h treatment) 856 nM; (measured here: 48 h treatment) 1250 nM.
